Measurements as given in patent US20120232162A1, “USE OF LUTEIN CONTAINING COMPOSITIONS TO IMPROVE CERTAIN ASPECTS OF MEMORY” (priority 2009, published 2012).
Entries after “also recorded” stand apart in the source; their conditions may differ.

Key:
[1] = test system: primary culture of neurons; assay: glutamate neurotoxicity paradigm in primary neuron culture (neurofilament network / neurite length); format: cell-based; details: lutein pre-treatment from day 5, 3 concentrations, n=6; 250 μM glutamate for 6 hours on day 12; glutamate control set as 100%; p<0.05 and <0.01
From the text: Glutamate is one of the principal excitatory amino acid in the central nervous system, and as such plays a crucial role in normal physiology. Perturbations in normal regulatory mechanisms of glutamate functions may lead to excessive, neurotoxic activation of glutamate receptors in the brain, which may be detrimental to learning and memory performance in the normal and aging brain. Using a primary culture of neurons, these conditions can be reproduced by glutamate intoxication. Impact on cultured neurons was indicated by morphological changes in the neurofilament cytoskeleton network of the neurons.
Neuroprotective effects of single compounds and combinations of compounds were evaluated by analyzing network density using labelling with an anti-neurofilament antibody (heavy chain 200 kD) specific to mature neuron neurites.
Riluzole (a pharmacological neuroprotective agent) and MK801 were used as inhibitory compounds counteracting neurotoxic effects of glutamate resulting in outgrowth of neurites. Inhibitory MK801 (complete blockage of NMDA-type glutamate receptors) was powerful and led to 100% recovery after intoxication.
Neuroprotective functions of lutein were tested using the schedule shown below:
On day 5, the culture medium was replaced by control culture medium or medium containing lutein (3 concentrations) within physiological range, n=6 per concentration). […]

mice [2] = assay: IntelliCage side discrimination paradigm (attention, associative learning and memory); format: in vivo; details: Lutein 9 mg/kg BW in feed, vs vehicle
From the text: (§1) The cognitive performance of mice treated with lutein and/or zeaxanthin was compared with that of vehicle-treated, age-matched controls in the IntelliCage®, a system which enables automated monitoring of spontaneous and learning behavior of mice in a homecage-like environment (NewBehavior AG, Zurich, Switzerland, www.newbehavior.com; Galsworthy et al. 2005, Behav Brain Res 157: 211-217; Onishchenko et al. 2007, Toxicol Sci 97: 428-437, Mechan et al., 2009, J. Neurosci. Methods, 180:43-51). Individual mice are recognized by sensors within the IntelliCage corners reading a transponder (reference identification tag) which is implanted into the scruff of the mouse's neck.
Each IntelliCage® is essentially a large cage (37.5×55×20.5 cm), into which is placed a metal frame, comprising four recording (operant) chambers. The recording chambers fit into the corners of the cage, each covering a 15×15×21 cm right-angled triangular area of floor space. […]
This module was designed to test attention and associative memory. […] During this module the place errors (i.e. percentage of visits to incorrect corners) and side errors (i.e. percentage of nosepokes at the incorrect side of the correct corner) were recorded.

mice [3] = assay: IntelliCage associative memory paradigm (negative reinforcement, stress); format: in vivo
From the text: as §1
(§2) Each IntelliCage® is essentially a large cage (37.5×55×20.5 cm), into which is placed a metal frame, comprising four recording (operant) chambers. The recording chambers fit into the corners of the cage, each covering a 15×15×21 cm right-angled triangular area of floor space. In-cage antennae enable automatic monitoring of each individual mouse's corner visits; photo-beams within each corner enable automated recording of individual nosepokes and licks of the water bottle spouts. Four triangular mouse shelters are placed in the center of the cage, above which is situated a food hopper, enabling ad libitum access to food.
Each recording chamber comprises: (1) a plastic ring (30 mm inner diameter) which serves as an entrance into the chamber and houses the circular antenna which registers corner visits; (2) a grid floor, which the mice sit on once they have entered the chamber; (3) two circular openings (13 mm diameter) which enable access to water bottle spouts; each opening is crossed by photo-beams which register nose-pokes; (4) two motorized doors, which allow (door open) or prohibit (door closed) access to the water bottle spouts; (5) two water bottles; (6) tubing, through which air-puffs can be delivered as aversive stimulation; (7) different colored light diodes, which can be used for conditioning experiments (Mechan et al., 2009 J Neurosci Methods 180:43-51). […]

mice [4] = assay: IntelliCage place learning paradigm (spatial learning and memory); format: in vivo; details: Lutein 9 mg/kg BW in feed, vs placebo-fed littermates
From the text: as §1
as §2, with “food. […]” for “food.”

[5] = lutein alone; chronic treatment (4 months); WO 2006/116755; cited from earlier work
[6] = second set of experiments, younger animals, intermediate lutein dose (of 8, 16 and 30 mg/kg/d), vs control group

## CC1=C[C@H](O)CC(C)(C)[C@H]1/C=C/C(C)=C/C=C/C(C)=C/C=C/C=C(C)/C=C/C=C(C)/C=C/C1=C(C)C[C@@H](O)CC1(C)C [lutein]
[1]
  protection of neurons from excitotoxic glutamate neuro-toxicity (neurite length): significantly protected
Mice [2]; active phase
  side error rate (percentage of nosepokes at the incorrect side of the correct corner): significantly lower
Mice [2]; active phase (first 12 h)
  place error rate (percentage of visits to incorrect corners): higher level of attention and an improved memory performance; also recorded: significantly lower
Mice [3]; Lutein 9 mg/kg BW in feed, vs vehicle-treated littermates
  learning and memorizing the correct place to access water under stressful conditions (air puff punishment): significantly better
Mice [3]; [6]
  performance in the associative memory task, place errors: significant improvement
  performance in the associative memory task, side errors: significant improvement
Mice [4]
  using spatial cues to find and memorize the location of water: significant improvement; also recorded: significantly better
[5]
  Verbal Fluency test: significant improvement
  other cognitive- or mood assessment-tests: did not result in improvements
